Reference: ChEMBL document CHEMBL3352389, “Evaluation of class I HDAC isoform selectivity of largazole analogues” (Bioorg Med Chem Lett, 2014)

Tests used:
Histone deacetylase 3 = Histone deacetylase 3 (Homo sapiens, UniProt O15379); assay: Inhibition of HDAC3 (unknown origin) incubated at 37 degC for 30 mins
Histone deacetylase 1 = Histone deacetylase 1 (Homo sapiens, UniProt Q13547); assay: Inhibition of HDAC1 (unknown origin) incubated at 37 degC for 30 mins
Histone deacetylase 2 = Histone deacetylase 2 (Homo sapiens, UniProt Q92769); assay: Inhibition of HDAC2 (unknown origin) incubated at 37 degC for 30 mins
Chain of Histone deacetylase 2 (Q92769 whole entry): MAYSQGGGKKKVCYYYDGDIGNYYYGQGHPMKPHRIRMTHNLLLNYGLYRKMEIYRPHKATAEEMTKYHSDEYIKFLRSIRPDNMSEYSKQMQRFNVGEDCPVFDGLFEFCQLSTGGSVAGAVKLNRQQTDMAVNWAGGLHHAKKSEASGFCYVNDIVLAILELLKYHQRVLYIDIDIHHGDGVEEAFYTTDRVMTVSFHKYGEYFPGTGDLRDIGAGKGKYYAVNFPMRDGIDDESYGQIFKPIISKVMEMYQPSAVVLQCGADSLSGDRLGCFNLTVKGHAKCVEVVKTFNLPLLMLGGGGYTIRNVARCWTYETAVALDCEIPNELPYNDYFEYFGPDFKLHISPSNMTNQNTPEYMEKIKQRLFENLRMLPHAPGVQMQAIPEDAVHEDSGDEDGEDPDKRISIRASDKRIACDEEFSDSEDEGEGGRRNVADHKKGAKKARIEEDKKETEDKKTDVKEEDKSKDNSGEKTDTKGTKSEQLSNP

Histone deacetylase 8 = target: T1, Histone deacetylase 8 (Homo sapiens, UniProt Q9BY41); assay: Inhibition of HDAC8 (unknown origin) incubated at 37 degC for 30 mins
T1 sequence (Q9BY41 whole entry): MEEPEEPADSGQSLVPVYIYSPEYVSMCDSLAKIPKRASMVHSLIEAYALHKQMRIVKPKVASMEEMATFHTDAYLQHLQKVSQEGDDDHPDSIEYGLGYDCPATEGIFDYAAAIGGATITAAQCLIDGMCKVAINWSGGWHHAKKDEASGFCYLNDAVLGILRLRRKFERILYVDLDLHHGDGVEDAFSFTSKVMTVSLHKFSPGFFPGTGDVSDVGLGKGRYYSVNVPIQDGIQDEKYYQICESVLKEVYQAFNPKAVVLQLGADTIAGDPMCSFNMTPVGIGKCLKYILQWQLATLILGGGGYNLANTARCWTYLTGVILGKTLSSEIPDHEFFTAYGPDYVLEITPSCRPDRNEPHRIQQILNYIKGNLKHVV

Chain of Histone deacetylase 1 (Q13547 whole entry): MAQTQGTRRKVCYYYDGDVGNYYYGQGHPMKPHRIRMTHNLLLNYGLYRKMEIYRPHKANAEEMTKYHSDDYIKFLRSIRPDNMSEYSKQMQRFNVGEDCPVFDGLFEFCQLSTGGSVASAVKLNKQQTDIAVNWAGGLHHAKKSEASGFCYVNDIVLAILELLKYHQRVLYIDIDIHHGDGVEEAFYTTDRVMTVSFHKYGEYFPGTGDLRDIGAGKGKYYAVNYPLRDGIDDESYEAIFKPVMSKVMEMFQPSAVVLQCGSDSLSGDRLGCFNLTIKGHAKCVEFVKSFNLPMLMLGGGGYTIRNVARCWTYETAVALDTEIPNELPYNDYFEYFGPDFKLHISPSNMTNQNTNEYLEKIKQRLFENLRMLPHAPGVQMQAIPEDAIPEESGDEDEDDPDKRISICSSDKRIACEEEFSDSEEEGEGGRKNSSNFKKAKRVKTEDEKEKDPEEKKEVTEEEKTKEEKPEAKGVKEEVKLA
Chain of Histone deacetylase 3 (O15379 whole entry): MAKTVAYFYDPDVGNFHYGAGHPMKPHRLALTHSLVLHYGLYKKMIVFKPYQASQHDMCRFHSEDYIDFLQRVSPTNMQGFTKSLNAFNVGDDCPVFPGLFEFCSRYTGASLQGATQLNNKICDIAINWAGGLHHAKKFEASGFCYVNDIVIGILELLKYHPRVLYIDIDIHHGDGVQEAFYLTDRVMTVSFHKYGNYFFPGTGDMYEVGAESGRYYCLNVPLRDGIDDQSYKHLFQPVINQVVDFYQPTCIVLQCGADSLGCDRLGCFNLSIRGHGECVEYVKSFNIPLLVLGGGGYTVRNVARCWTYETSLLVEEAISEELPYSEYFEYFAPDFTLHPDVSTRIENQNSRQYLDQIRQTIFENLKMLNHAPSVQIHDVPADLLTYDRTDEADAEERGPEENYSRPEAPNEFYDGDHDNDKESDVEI

| Structure (SMILES) | IC50 (Histone deacetylase 3) | IC50 (Histone deacetylase 1) | IC50 (Histone deacetylase 2) | IC50 (Histone deacetylase 8) | IC50 (Histone deacetylase 8; read-out: IC50) |
| --- | --- | --- | --- | --- | --- |
| C[C@@]12CSC(=N1)c1csc(n1)CNC(=O)C[C@@H](/C=C/CCS)OC(=O)[C@H](Cc1ccccc1)NC2=O | 0.68 nM | 0.29 nM | 1.7 nM | Not Active |  |
| C[C@@]12CSC(=N1)c1csc(n1)CNC(=O)C[C@@H](/C=C/CCS)OC(=O)[C@H](Cc1ccc(O)cc1)NC2=O | 0.38 nM | 0.21 nM | 1.1 nM | Not Active |  |
| C[C@@]12CSC(=N1)c1csc(n1)CNC(=O)C[C@@H](/C=C/CCS)OC(=O)[C@H](Cc1c[nH]cn1)NC2=O | 1.1 nM | 0.2 nM | 1.4 nM | Not Active |  |
| C[C@@]12CSC(=N1)c1csc(n1)CNC(=O)C[C@@H](/C=C/CCS)OC(=O)[C@H](CC(=O)O)NC2=O | 100 nM | 39 nM | 150 nM | Not Active |  |
| C[C@@]12CSC(=N1)c1csc(n1)CNC(=O)C[C@@H](/C=C/CCS)OC(=O)[C@H](CCCN)NC2=O | 6 nM | 3.3 nM | 6.3 nM | Not Active |  |
| CC(C)(C)OC(=O)n1cnc(C[C@@H]2NC(=O)[C@]3(C)CSC(=N3)c3csc(n3)CNC(=O)C[C@@H](/C=C/CCS)OC2=O)c1 |  | 0.62 nM |  |  | 540 nM |

Continued by falling IC50 (Histone deacetylase 1), values first:

| IC50 (Histone deacetylase 3) | IC50 (Histone deacetylase 1) | IC50 (Histone deacetylase 2) | IC50 (Histone deacetylase 8) | IC50 (Histone deacetylase 8; read-out: IC50) | Structure (SMILES) |
| --- | --- | --- | --- | --- | --- |
| 7.8 nM | 5.5 nM | 21 nM | Not Active |  | C[C@@]12CSC(=N1)c1csc(n1)CNC(=O)C[C@@H](/C=C/CCS)OC(=O)[C@H](CCN)NC2=O |
| 4.2 nM | 2.3 nM | 3.1 nM | Not Active |  | CC(C)(C)OC(=O)NCC[C@@H]1NC(=O)[C@]2(C)CSC(=N2)c2csc(n2)CNC(=O)C[C@@H](/C=C/CCS)OC1=O |
| 1.8 nM | 0.96 nM | 1.4 nM |  | 790 nM | CC(C)(C)OC(=O)NCCC[C@@H]1NC(=O)[C@]2(C)CSC(=N2)c2csc(n2)CNC(=O)C[C@@H](/C=C/CCS)OC1=O |
